The text below walks through data of patent publication US20220135591A1, “HETEROCYCLIC COMPOUNDS AS INHIBITORS OF MONOACYLGLYCEROL LIPASE (MAGL)” (Hoffmann-La Roche Inc., priority 2019, published 2022).

In the experiment the target is T1, MAGL (recombinant wild-type) (Homo sapiens, UniProt Q99685).
T1 sequence (Q99685 1-303): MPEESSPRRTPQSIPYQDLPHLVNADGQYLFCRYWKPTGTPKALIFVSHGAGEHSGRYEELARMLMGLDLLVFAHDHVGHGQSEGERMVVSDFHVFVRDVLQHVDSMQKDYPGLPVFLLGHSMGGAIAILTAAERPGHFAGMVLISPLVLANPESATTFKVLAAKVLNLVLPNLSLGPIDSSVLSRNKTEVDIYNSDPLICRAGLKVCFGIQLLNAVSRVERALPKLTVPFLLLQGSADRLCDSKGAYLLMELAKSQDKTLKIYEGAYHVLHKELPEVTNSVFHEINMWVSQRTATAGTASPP
In words: 4-NPA assay: MAGL inhibitory activity by hydrolysis of 4-nitrophenylacetate, absorbance at 405 nm. It counts as biochemical. The settings on record: 4-NPA assay (values without footnote [b]). In short, it runs like this:
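Final assay: 1 nM MAGL and 300 μM 4-nitrophenylacetate in 50 mM Tris, 1 mM EDTA, at RT. Compounds (25 μM–1.7 nM, 3-fold steps) were preincubated 15 min with enzyme. A405 was read 5 min after substrate addition and again after 80 min; activity was taken as the difference between reads.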
Turning to `Cc1ccc2oc(N3CCN(C(=O)c4cnc(N5CC6(CCC6(F)F)C5)cc4C)CC3)nc2n1` [Example 221, (6-(5,5-difluoro-2-azaspiro[3.3]heptan-2-yl)-4-methylpyridin-3-yl)(4-(5-methyloxazolo[4,5-b]pyridin-2-yl)piperazin-1-yl)methanone], the IC50 (in general, the concentration that inhibits the measured activity by half) came out at 13100 nM. The same measure for `Cc1ccc2oc(N3CCN(C(=O)c4cnc(N5CCC6(C5)CC6(F)F)nc4)CC3)nc2n1` (stereo not drawn) [Example 222, (2-(1,1-difluoro-5-azaspiro[2.4]heptan-5-yl)pyrimidin-5-yl)(4-(5-methyloxazolo[4,5-b]pyridin-2-yl)piperazin-1-yl)methanone]: 794 nM; for `Cc1ccc2oc(N3CCN(C(=O)c4cnc(N5CCC6(C5)CC6(F)F)cc4C)CC3)nc2n1` (stereo not drawn) [Example 223, (6-(1,1-difluoro-5-azaspiro[2.4]heptan-5-yl)-4-methylpyridin-3-yl)(4-(5-methyloxazolo[4,5-b]pyridin-2-yl)piperazin-1-yl)methanone]: 4460 nM; for `Cc1ccc2oc(N3CCN(C(=O)c4cnc(N5CC(OC(C)C(F)(F)F)C5)c(F)c4)CC3)nc2n1` (stereo not drawn) [Example 224, (5-fluoro-6-(3-((1,1,1-trifluoropropan-2-yl)oxy)azetidin-1-yl)pyridin-3-yl)(4-(5-methyloxazolo[4,5-b]pyridin-2-yl)piperazin-1-yl)methanone]: 90 nM. Under `Cc1ccc2oc(N3CCN(C(=O)c4cnc(N5CCC6(C5)CC6(F)F)c(C)c4)CC3)nc2n1` (stereo not drawn) [Example 225, (6-(1,1-difluoro-5-azaspiro[2.4]heptan-5-yl)-5-methylpyridin-3-yl)(4-(5-methyloxazolo[4,5-b]pyridin-2-yl)piperazin-1-yl)methanone] stands 244 nM; under `Cc1ccc2oc(N3CCN(C(=O)c4cnc(N5CC(OC(C)C(F)(F)F)C5)c(Cl)c4)CC3)nc2n1` (stereo not drawn) [Example 226, (5-chloro-6-(3-((1,1,1-trifluoropropan-2-yl)oxy)azetidin-1-yl)pyridin-3-yl)(4-(5-methyloxazolo[4,5-b]pyridin-2-yl)piperazin-1-yl)methanone], 38 nM. On to `Cc1ccc2oc(N3CCN(C(=O)c4cnc(N5CCC6(C5)CC6(F)F)c(Cl)c4)CC3)nc2n1` (stereo not drawn) [Example 227, (5-chloro-6-(1,1-difluoro-5-azaspiro[2.4]heptan-5-yl)pyridin-3-yl)(4-(5-methyloxazolo[4,5-b]pyridin-2-yl)piperazin-1-yl)methanone], for which the IC50 turned out to be 62 nM.

With `Cc1ccc2oc(N3CCN(C(=O)c4cnc(N5CCC6(C5)CC6(F)F)c(F)c4)CC3)nc2n1` (stereo not drawn) [Example 228, (6-(1,1-difluoro-5-azaspiro[2.4]heptan-5-yl)-5-fluoropyridin-3-yl)(4-(5-methyloxazolo[4,5-b]pyridin-2-yl)piperazin-1-yl)methanone], the IC50 turned out to be 152 nM. Under `CC(OC1CN(c2ncc(C(=O)N3CCN(c4nc5nc(Cl)ccc5o4)CC3)cc2F)C1)C(F)(F)F` (stereo not drawn) [Example 229, (4-(5-chlorooxazolo[4,5-b]pyridin-2-yl)piperazin-1-yl)(5-fluoro-6-(3-((1,1,1-trifluoropropan-2-yl)oxy)azetidin-1-yl)pyridin-3-yl)methanone] stands 35 nM. Turning to `O=C(c1cnc(N2CCC3(C2)CC3(F)F)c(F)c1)N1CCN(c2nc3nc(Cl)ccc3o2)CC1` (stereo not drawn) [Example 230, (4-(5-chlorooxazolo[4,5-b]pyridin-2-yl)piperazin-1-yl)(6-(1,1-difluoro-5-azaspiro[2.4]heptan-5-yl)-5-fluoropyridin-3-yl)methanone], the IC50 came out at 56 nM. Under `CC(C)(C)Cc1nc(-c2ccc(C(=O)N3CCN(c4nc5nc(C#N)ccc5o4)CC3)cc2)no1` [Example 260, 2-(4-(4-(5-neopentyl-1,2,4-oxadiazol-3-yl)benzoyl)piperazin-1-yl)oxazolo[4,5-b]pyridine-5-carbonitrile] stands 301 nM. Under `CC(C)(C)Cc1nc(-c2ccc(C(=O)N3CCN(c4nc5nc(C(F)(F)F)ccc5o4)CC3)cc2)no1` [Example 261, (4-(5-neopentyl-1,2,4-oxadiazol-3-yl)phenyl)(4-(5-(trifluoromethyl)oxazolo[4,5-b]pyridin-2-yl)piperazin-1-yl)methanone] stands 40 nM; under `CC(F)(F)Cc1nc(-c2ccc(C(=O)N3CCN(c4nc5nc(Cl)ccc5o4)CC3)cc2)no1` [Example 262, [4-(5-chlorooxazolo[4,5-b]pyridin-2-yl)piperazin-1-yl]-[4-[5-(2,2-difluoropropyl)-1,2,4-oxadiazol-3-yl]phenyl]methanone], 65 nM. Take `CCCCc1nc2ccc(C(=O)N3CCN(c4nc5nc(C)ccc5o4)CC3)cc2o1` [Example 263, (2-butyl-1,3-benzoxazol-6-yl)-[4-(5-methyloxazolo[4,5-b]pyridin-2-yl)piperazin-1-yl]methanone]: the IC50 was 181 nM. Under `CC(C)(F)Cc1nc(-c2ccc(C(=O)N3CCN(c4nc5nc(Cl)ccc5o4)CC3)cc2)no1` [Example 264, [4-(5-chlorooxazolo[4,5-b]pyridin-2-yl)piperazin-1-yl]-[4-[5-(2-fluoro-2-methyl-propyl)-1,2,4-oxadiazol-3-yl]phenyl]methanone] stands 59 nM; under `C=C(C)Cc1nc(-c2ccc(C(=O)N3CCN(c4nc5nc(Cl)ccc5o4)CC3)cc2)no1` [Example 265, [4-(5-chlorooxazolo[4,5-b]pyridin-2-yl)piperazin-1-yl]-[4-[5-(2-methylallyl)-1,2,4-oxadiazol-3-yl]phenyl]methanone], 30 nM; under `CC(C)=Cc1nc(-c2ccc(C(=O)N3CCN(c4nc5nc(Cl)ccc5o4)CC3)cc2)no1` [Example 266, [4-(5-chlorooxazolo[4,5-b]pyridin-2-yl)piperazin-1-yl]-[4-[5-(2-methylprop-1-enyl)-1,2,4-oxadiazol-3-yl]phenyl]methanone], 101 nM.

Consider `Cc1ccc2oc(N3CCN(C(=O)N4CC5(C4)CN(S(=O)(=O)c4cccc(Cl)c4)C5)CC3)nc2n1` [Example 305, [2-(3-chlorophenyl)sulfonyl-2,6-diazaspiro[3.3]heptan-6-yl]-[4-(5-methyloxazolo[4,5-b]pyridin-2-yl)piperazin-1-yl]methanone], for which the IC50 is 2420 nM.
